Data as given in PubChem BioAssay AID977628 (Broad Institute, 2014).
Inconclusive results are not listed. Active and inactive are the calls of the source.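 Rule for the calls: active = compound lowering the normal-ribosome reporter at least twice as much as the humanized-ribosome reporter, growth loss under a set limit; inconclusive = no clear call, values can overlap the other calls; inactive = the rest.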

Test system: E. coli WT GFP strain growth, fluorescence, 24 h
Experiment: E. coli growth inhibition, wild-type GFP versus h24 humanized RFP strain, dose response, h24 mutant RFP vs wild-type GFP, cherry-pick (AID 977628)

Compound	AC50
COc1cc(SC)ccc1C(=O)N1CCN(c2ccccc2F)CC1	> 100 µM (inactive)
CSc1ccccc1NC(=O)c1ccccc1N(Cc1ccccc1)S(C)(=O)=O	> 100 µM (inactive)
O=C(c1ccccc1)N(c1ccccc1)c1nccc2ccccc12	> 100 µM (inactive)
COc1cccc(NC2=Nc3cccc4cccc2c34)c1	> 100 µM (inactive)
Cc1ccc(S(=O)(=O)N2CC(=O)Nc3ccccc32)cc1C	> 100 µM (inactive)
C=CCN(c1ccccc1)S(=O)(=O)c1cccc2cccnc12	> 100 µM (inactive)
CC1(C(=O)NS(=O)(=O)c2ccc3c(c2)CCO3)CCN1C(=O)c1ccccc1CCc1ccccc1 (configuration not stated)	> 100 µM (inactive)
COC(=O)c1ccc(CN2CCCC(CO)(Cc3ccccc3F)C2)cc1 (configuration not stated)	> 100 µM (inactive)
COc1ccccc1-c1ccc(SCc2ccc(F)cc2)nn1	> 100 µM (inactive)
O=C(O)C1CCCCC1C(=O)Nc1ccc(OCc2ccccc2)cc1 (configuration not stated)	> 100 µM (inactive)
Cc1ccc(Cl)cc1N1CCN(C(=O)c2ccc3nc[nH]c3c2)CC1	> 100 µM (inactive)
COc1ccc(OC)c(S(=O)(=O)Nc2cccc3ccccc23)c1	> 100 µM (inactive)
Cc1cc2nc(SCC(=O)O)nc(C)c2cc1C	> 100 µM (inactive)
COc1cccc(NC(=O)C2CCC(CNS(=O)(=O)c3cccc4cccnc34)CC2)c1 (configuration not stated)	> 100 µM (inactive)
CCC(C)C(=O)Nc1nc2ccc(OC)cc2s1 (configuration not stated)	> 100 µM (inactive)
CC1(C(=O)NS(=O)(=O)c2cccs2)CCN1C(=O)C1(c2ccc(Cl)cc2)CCC1 (configuration not stated)	> 100 µM (inactive)
CCOc1ccc(OCc2cccc(C(=O)O)c2)cc1	> 100 µM (inactive)
CC1CCCN(C(=O)C(C)Nc2cc(Cl)ccc2N2CCOCC2)C1 (configuration not stated)	> 100 µM (inactive)
COc1ccccc1CNC(=O)CSc1ccc(C)cc1	> 100 µM (inactive)
CC1(C)CC(=O)c2cnc(N3CCc4ccccc43)nc2C1	> 100 µM (inactive)
CCn1nc(Cc2cccc3ccccc23)c(C#N)c1N	> 100 µM (inactive)
COc1ccc(-c2cc(C(=O)N3CCc4ccccc4C3)no2)cc1	> 100 µM (inactive)
COc1cc2[nH]c(=S)nc(NCCc3ccc(C)cc3)c2cc1OC	> 100 µM (inactive)
O=C(O)c1ccc(Oc2ccc([N+](=O)[O-])cc2)c([N+](=O)[O-])c1	> 100 µM (inactive)
Cc1ccccc1OCC(O)Cn1c(NCc2ccco2)nc2c1c(=O)n(C)c(=O)n2C (configuration not stated)	> 100 µM (inactive)

Compound	AC50
CSc1cccc(NC(=O)CSc2nc3ccccc3o2)c1	> 100 µM (inactive)
CCn1nnc(NC(=O)c2ccc([N+](=O)[O-])o2)n1	> 100 µM (inactive)
O=C(CCC(=O)c1cccs1)OCC(=O)c1ccc(Cl)s1	> 100 µM (inactive)
O=C(Cc1cccc(NC(=O)C2CCN(C(=O)CCc3ccccc3)CC2)c1)Nc1cccc(C(=O)N2CCCC2)c1	> 100 µM (inactive)
COc1ccc(C(=O)N(c2ccccc2)c2nccc3ccccc23)cc1OC	> 100 µM (inactive)
COCCNc1cc(-c2ccccc2)nc2cc(-c3cccc(F)c3)nn12	> 100 µM (inactive)
CCn1nc(C)cc1C(=O)N1CCCC(C(=O)c2ccc3ccccc3c2)C1 (configuration not stated)	> 100 µM (inactive)
CC(=O)Oc1ccc(N(C(C)=O)S(=O)(=O)c2ccc(C)cc2)c2ccccc12	> 100 µM (inactive)
COc1ccc(CNc2ncnc3cc(OC)c(OC)cc23)cc1OC	> 100 µM (inactive)
Nc1nn(-c2ccccc2)c2ccc([N+](=O)[O-])cc12	> 100 µM (inactive)
CCCc1c(C(=O)Nc2ccc(OC)cc2)cnn1-c1ccccc1	> 100 µM (inactive)
O=C(CSc1ccccc1)Nc1cccc(NC(=O)c2ccco2)c1	> 100 µM (inactive)
CCOc1ccc2nc(SCC(=O)Nc3cccc(S(=O)(=O)NC4=NCCCCC4)c3)[nH]c2c1	> 100 µM (inactive)
CC1CCCCN1CC(O)COCCC12CC3CC(CC(C3)C1)C2 (configuration not stated)	> 100 µM (inactive)
CSc1ccc(CN(C)CC(=O)NC(C)c2ccccc2)cc1 (configuration not stated)	> 100 µM (inactive)
c1ccc(SCc2nc3ccccc3s2)nc1	> 100 µM (inactive)
Cc1ccccc1-n1nnnc1SCCCC(=O)c1ccc(F)cc1	> 100 µM (inactive)
CCOC(=O)c1cc(C)nc(N2CCCCC2)c1C#N	> 100 µM (inactive)
CCn1nc(C(=O)OCc2cccc(S(=O)(=O)N(C)C)c2)c2ccccc2c1=O	> 100 µM (inactive)
COc1cc(OC)cc(C(=O)N[C@H](C(=O)OCC(=O)Nc2ccc(F)c(F)c2F)C(C)C)c1	> 100 µM (inactive)
COC(=O)c1cc(C(=O)c2c(C)cc3ccccn23)cc([N+](=O)[O-])c1	> 100 µM (inactive)
COc1ccc(NC(=O)CN(C)C(=O)c2cc(C3CC3)nn2-c2ccccc2)cc1	> 100 µM (inactive)
COc1ccc(NS(=O)(=O)c2cc(NC(=O)CNC(=O)c3cccc(OC)c3)ccc2C)cc1	> 100 µM (inactive)
O=C(c1cnc(Cc2c[nH]c3ccccc23)c(I)c1)N1CCCCC1	> 100 µM (inactive)
O=C(c1ccccc1)C1CN(Cc2ccccc2)CCC1(O)c1ccccc1 (configuration not stated)	> 100 µM (inactive)

Compound	AC50
COc1ccc(C)cc1-n1c(=O)c2ccccc2c2ccccc2c1=O	> 100 µM (inactive)
COc1ccc(OCC2c3cc(OC)c(OC)cc3CCN2C(=O)C(C)C)cc1 (configuration not stated)	> 100 µM (inactive)
Cc1cc(C(=O)Nc2cccc3c2O[C@H](CN(C)S(=O)(=O)c2ccc(Cl)cc2)[C@H](C)CN([C@H](C)CO)C3=O)n(C)n1	> 100 µM (inactive)
CCN(c1cccc2ccccc12)S(=O)(=O)c1ccc(Cl)nc1	> 100 µM (inactive)
COCc1nnc(NC(=O)c2ccc(S(=O)(=O)N3CCCC3)cc2)o1	> 100 µM (inactive)
CC(=O)N1CCN(c2nc(-c3cccs3)nc3ccccc23)CC1	> 100 µM (inactive)
O=C(O)c1nn2c(C(F)(F)F)cc(-c3cccs3)nc2c1Cl	> 100 µM (inactive)
CCOC(=O)c1cnc2c(cnn2C)c1NCc1ccc(OC)cc1	> 100 µM (inactive)
COc1ccc2c(c1)c(C(C)=O)c(C)n2CCc1ccc(OC)c(OC)c1	> 100 µM (inactive)
COc1cccc(Nc2nc(N)c([N+](=O)[O-])c(NCc3ccccc3)n2)c1	> 100 µM (inactive)
Fc1cccc(Cc2c(-c3ccco3)nc3c4ccccc4ccn23)c1	> 100 µM (inactive)
CC1C=Cc2ccccc2N1C(=O)c1ccccc1 (configuration not stated)	> 100 µM (inactive)
Cc1nnn(C23C[C@@H]4C[C@@H](CC(C(=O)N5CCN(c6ccccc6)CC5)(C4)C2)C3)n1	> 100 µM (inactive)
COc1ccccc1NC(=O)CSc1nccn1Cc1ccc(F)cc1	> 100 µM (inactive)
Cc1cccc(NC(=O)CC23CC4CC(C2)CC(n2nnc(C)n2)(C4)C3)c1	> 100 µM (inactive)
O=C(CN1c2ccccc2S(=O)(=O)c2ccccc21)NCc1ccc(F)cc1	> 100 µM (inactive)
COc1ccc(C(=O)c2c(C)oc3ccc(O)cc23)cc1	> 100 µM (inactive)
CC(C)(C)c1ccc(N2C(=O)CSC2c2cccnc2)cc1 (configuration not stated)	> 100 µM (inactive)
O=C(O)CC1(CC(=O)NCc2ccc(-c3cccs3)cc2)CCCCC1	> 100 µM (inactive)
COc1ccc(Cn2c(=O)c3[nH]cnc3n(-c3ccc(C)cc3)c2=O)cc1	> 100 µM (inactive)
CC(C)C[C@@H](CSc1ccccc1)N1CCN(CC(C)C)CCC1=O	> 100 µM (inactive)
CSC1=NCCN1C(=O)Cc1ccc(-c2ccccc2)cc1	> 100 µM (inactive)
CCOc1ccccc1N1CCN(Cc2cn[nH]c2-c2ccc(F)cc2)CC1	> 100 µM (inactive)
CC(C(=O)Nc1nc2ccccc2s1)n1cc([N+](=O)[O-])cn1 (configuration not stated)	> 100 µM (inactive)
Cc1cc(C)c(S(=O)(=O)NCCOc2ccccc2)c(C)c1-n1cnnn1	> 100 µM (inactive)

Compound	AC50
O=C1NC(CCc2ccccc2)C(=O)N1Cc1cccc2ccccc12 (configuration not stated)	> 100 µM (inactive)
CC(NCc1ccc(S(N)(=O)=O)cc1)C(=O)Nc1cc([N+](=O)[O-])ccc1Cl (configuration not stated)	> 100 µM (inactive)
COc1ccc(OC)c(N(CC(=O)Nc2ccccc2F)S(=O)(=O)c2ccccc2)c1	> 100 µM (inactive)
O=C(c1cc(COc2c(F)cccc2F)on1)N1C[C@H]2CC[C@H]1C2	> 100 µM (inactive)
O=C(NCc1cccnc1)c1ccc(COc2ccc3c(c2)CCC3)o1	> 100 µM (inactive)
COc1ccccc1-n1c(Cc2ccccc2)nc2ccccc2c1=O	> 100 µM (inactive)
O=C(CCCOc1ccc(Cl)cc1Cl)Nc1ccccc1C(=O)O	> 100 µM (inactive)
COc1ccc(NS(=O)(=O)c2ccc(Cl)c(NC(=O)c3ccccc3F)c2)cc1	> 100 µM (inactive)
COc1cccc(OC)c1OCCCOc1cccc2cccnc12	> 100 µM (inactive)
Cc1nc(Sc2ccccc2)c(C#N)c(C)c1[N+](=O)[O-]	> 100 µM (inactive)
Cc1cccc(S(=O)(=O)NC(=O)C2(C)CCN2C(=O)c2ccccc2CCc2ccccc2)c1 (configuration not stated)	> 100 µM (inactive)
CCN(CC)S(=O)(=O)c1cc(NS(=O)(=O)c2cccc(Cl)c2Cl)ccc1C	> 100 µM (inactive)
COc1ccccc1CN1Cc2ccccc2Oc2ccccc2S1(=O)=O	> 100 µM (inactive)
COc1cccc(C(NC(C)=O)c2nc(-c3ccccc3OC)cs2)c1 (configuration not stated)	> 100 µM (inactive)
COc1ccc(-c2cc(C(=O)N(C)CCc3ccc(OC)c(OC)c3)c3ccccc3n2)cc1	> 100 µM (inactive)
c1cncc(-c2nc3cc4ccccc4cc3[nH]2)c1	> 100 µM (inactive)
O=C(c1cc(COc2ccc(F)cc2F)on1)N1CCCC(c2ccccc2)C1 (configuration not stated)	> 100 µM (inactive)
CCCCNc1ccc2c(c1)OC[C@@H](Cc1ccccc1)NS2(=O)=O	> 100 µM (inactive)
CC1CCCN(c2ccc(C(=O)NCCc3ccccc3)cn2)C1 (configuration not stated)	> 100 µM (inactive)
O=S1(=O)N[C@H](Cc2ccccc2)COc2cccc(N3CCC[C@H]3CO)c21	> 100 µM (inactive)
O=c1[nH]c(C2CCCN(S(=O)(=O)c3ccccc3Cl)C2)nc2c1nnn2Cc1ccc2c(c1)OCCO2 (configuration not stated)	> 100 µM (inactive)
CN(c1ccccc1)S(=O)(=O)c1cccc(C(=O)OCC(=O)NCc2ccco2)c1	> 100 µM (inactive)
